Measured values reported in PubChem BioAssay AID1963828 (Molecular Pharmacology Branch, DTP, NCI, 2024).

Test system: 991263-137-R1-J2-PDC complex spheroid viability
Assay: Anticancer human tumor 991263-137-R1-J2-PDC patient-derived colon adenocarcinoma cell line growth inhibition [POLQ]
Conditions: for IC50: curve of first compound; for viability, T/C: stronger effect = lower value
In short: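 PDC + HUVEC + MSC complex spheroids; POLQ inhibitors ± partner drugs; top conc. at/near clinical Cmax, else 10 microM (SN-38 1 microM), half-log dilutions; 37 degrees C, 5% CO2.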

[1] = second compound 0.0316 µM, first compound 0.0316 µM
[2] = second compound 0.0316 µM, first compound 0.1 µM
[3] = second compound 0.0316 µM, first compound 0.316 µM
[4] = second compound 0.0316 µM, first compound 1 µM
[5] = second compound 0.0316 µM, first compound 3.16 µM
[6] = second compound 0.0316 µM, first compound 10 µM
[7] = second compound 0.1 µM, first compound 0.0316 µM
[8] = second compound 0.1 µM, first compound 0.1 µM
[9] = second compound 0.1 µM, first compound 0.316 µM
[10] = second compound 0.1 µM, first compound 1 µM
[11] = second compound 0.1 µM, first compound 3.16 µM
[12] = second compound 0.1 µM, first compound 10 µM
[13] = second compound 0.316 µM, first compound 0.0316 µM
[14] = second compound 0.316 µM, first compound 0.1 µM
[15] = second compound 0.316 µM, first compound 0.316 µM
[16] = second compound 0.316 µM, first compound 1 µM
[17] = second compound 0.316 µM, first compound 3.16 µM
[18] = second compound 0.316 µM, first compound 10 µM
[19] = second compound 1 µM, first compound 0.0316 µM
[20] = second compound 1 µM, first compound 0.1 µM
[21] = second compound 1 µM, first compound 0.316 µM
[22] = second compound 1 µM, first compound 1 µM
[23] = second compound 1 µM, first compound 3.16 µM
[24] = second compound 1 µM, first compound 10 µM
[25] = second compound 3.16 µM, first compound 0.0316 µM
[26] = second compound 3.16 µM, first compound 0.1 µM
[27] = second compound 3.16 µM, first compound 0.316 µM
[28] = second compound 3.16 µM, first compound 1 µM
[29] = second compound 3.16 µM, first compound 3.16 µM
[30] = second compound 3.16 µM, first compound 10 µM
[31] = second compound 10 µM, first compound 0.0316 µM
[32] = second compound 10 µM, first compound 0.1 µM
[33] = second compound 10 µM, first compound 0.316 µM
[34] = second compound 10 µM, first compound 1 µM
[35] = second compound 10 µM, first compound 3.16 µM
[36] = second compound 10 µM, first compound 10 µM
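Also: spheroids exposed to compounds for 7 days before readout.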
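For viability, T/C in this document: 100% = DMSO vehicle control viability.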

In the case of CC1COCCN1c1cc(-c2ccnn2C)c2ccnc(-c3ccn[nH]3)c2n1 (stereo not drawn) + Nc1ccc(C#CCN(C(=O)Cc2ncc(C(F)(F)F)cc2C(F)(F)F)c2ccc(F)cc2)nn1, the IC50 (second compound 0.0316 µM) is reported as 1.14 µM, the IC50 (second compound 0.1 µM) is reported as 1.61 µM and the IC50 (second compound 0.316 µM) is reported as 1.15 µM. For the same molecule, the IC50 (second compound 1 µM) was 1.4 µM, the IC50 (second compound 3.16 µM) was 1.11 µM and the IC50 (second compound 10 µM) was 0.918 µM. It also gave a viability, T/C [1] of 105%, a viability, T/C [2] of 93.8% and a viability, T/C [3] of 75.6%. For the same molecule, the viability, T/C [4] was 50.6%, the viability, T/C [5] was 38.6% and the viability, T/C [6] was 32.5%. The viability, T/C [7] was 105%, the viability, T/C [8] was 88.7% and the viability, T/C [9] was 69.5%. For the same molecule, the viability, T/C [10] was 58.4%, the viability, T/C [11] was 39.9% and the viability, T/C [12] was 32.5%. It also gave a viability, T/C [13] of 99.4%, a viability, T/C [14] of 107% and a viability, T/C [15] of 74.4%. The viability, T/C [16] was 53.7%, the viability, T/C [17] was 40.6% and the viability, T/C [18] was 32%. The viability, T/C [19] was 108%, the viability, T/C [20] was 94% and the viability, T/C [21] was 75.5%. It also gave a viability, T/C [22] of 53.4%, a viability, T/C [23] of 40.4% and a viability, T/C [24] of 31.1%. It also gave a viability, T/C [25] of 103%, a viability, T/C [26] of 95.8% and a viability, T/C [27] of 72.5%. The viability, T/C [28] was 53%, the viability, T/C [29] was 35.8% and the viability, T/C [30] was 31.1%. It also gave a viability, T/C [31] of 93.9%, a viability, T/C [32] of 88.2% and a viability, T/C [33] of 73%. For the same molecule, the viability, T/C [34] was 46.2%, the viability, T/C [35] was 42.6% and the viability, T/C [36] was 33.8%.

Molecule CCc1cc2c(N3CCc4c(cc(Cn5ccnc5)cc4-c4cn(C)nc4C(F)(F)F)C3=O)ccnc2c(OC)n1 + Nc1ccc(C#CCN(C(=O)Cc2ncc(C(F)(F)F)cc2C(F)(F)F)c2ccc(F)cc2)nn1 has an IC50 (second compound 0.0316 µM) of over 10 µM, an IC50 (second compound 0.1 µM) of over 10 µM and an IC50 (second compound 0.316 µM) of over 10 µM. It also gave an IC50 (second compound 1 µM) of over 10 µM, an IC50 (second compound 3.16 µM) of over 10 µM and an IC50 (second compound 10 µM) of over 10 µM. For the same molecule, the viability, T/C [1] was 118%, the viability, T/C [2] was 109% and the viability, T/C [3] was 101%. The viability, T/C [4] was 92.2%, the viability, T/C [5] was 91.5% and the viability, T/C [6] was 88.7%. For the same molecule, the viability, T/C [7] was 97.1%, the viability, T/C [8] was 103% and the viability, T/C [9] was 108%. For the same molecule, the viability, T/C [10] was 101%, the viability, T/C [11] was 96% and the viability, T/C [12] was 90.2%. For the same molecule, the viability, T/C [13] was 107%, the viability, T/C [14] was 99.8% and the viability, T/C [15] was 106%. For the same molecule, the viability, T/C [16] was 111%, the viability, T/C [17] was 103% and the viability, T/C [18] was 79.3%. For the same molecule, the viability, T/C [19] was 95.1%, the viability, T/C [20] was 107% and the viability, T/C [21] was 108%. For the same molecule, the viability, T/C [22] was 91.9%, the viability, T/C [23] was 97.4% and the viability, T/C [24] was 95.7%. For the same molecule, the viability, T/C [25] was 116%, the viability, T/C [26] was 112% and the viability, T/C [27] was 87%. It also gave a viability, T/C [28] of 101%, a viability, T/C [29] of 95.3% and a viability, T/C [30] of 89.6%. It also gave a viability, T/C [31] of 95.1%, a viability, T/C [32] of 102% and a viability, T/C [33] of 107%. For the same molecule, the viability, T/C [34] was 89.8%, the viability, T/C [35] was 86.4% and the viability, T/C [36] was 82.9%.

Molecule CNCc1ccc(-c2[nH]c3cc(F)cc4c3c2CCNC4=O)cc1 + Nc1ccc(C#CCN(C(=O)Cc2ncc(C(F)(F)F)cc2C(F)(F)F)c2ccc(F)cc2)nn1 has an IC50 (second compound 0.0316 µM) of over 10 µM, an IC50 (second compound 0.1 µM) of over 10 µM and an IC50 (second compound 0.316 µM) of over 10 µM. For the same molecule, the IC50 (second compound 1 µM) was over 10 µM, the IC50 (second compound 3.16 µM) was over 10 µM and the IC50 (second compound 10 µM) was over 10 µM. The viability, T/C [1] was 98.4%, the viability, T/C [2] was 91.8% and the viability, T/C [3] was 98.2%. It also gave a viability, T/C [4] of 93.4%, a viability, T/C [5] of 97.7% and a viability, T/C [6] of 117%. For the same molecule, the viability, T/C [7] was 112%, the viability, T/C [8] was 99.5% and the viability, T/C [9] was 114%. The viability, T/C [10] was 95.1%, the viability, T/C [11] was 110% and the viability, T/C [12] was 108%. The viability, T/C [13] was 104%, the viability, T/C [14] was 97.2% and the viability, T/C [15] was 96.3%. For the same molecule, the viability, T/C [16] was 101%, the viability, T/C [17] was 93.2% and the viability, T/C [18] was 119%. It also gave a viability, T/C [19] of 99.2%, a viability, T/C [20] of 90.1% and a viability, T/C [21] of 93%. The viability, T/C [22] was 97%, the viability, T/C [23] was 106% and the viability, T/C [24] was 106%. For the same molecule, the viability, T/C [25] was 94.5%, the viability, T/C [26] was 98% and the viability, T/C [27] was 103%. For the same molecule, the viability, T/C [28] was 99.7%, the viability, T/C [29] was 97.1% and the viability, T/C [30] was 100%. It also gave a viability, T/C [31] of 88.1%, a viability, T/C [32] of 97.5% and a viability, T/C [33] of 99.3%. The viability, T/C [34] was 94.5%, the viability, T/C [35] was 103% and the viability, T/C [36] was 109%.

COc1ccc([C@@H](O)c2cc(-c3ncnc4cc(N5CCOCC5)ccc34)c(F)cc2Cl)nn1 + Nc1ccc(C#CCN(C(=O)Cc2ncc(C(F)(F)F)cc2C(F)(F)F)c2ccc(F)cc2)nn1 showed an IC50 (second compound 0.0316 µM) of 5.34 µM, an IC50 (second compound 0.1 µM) of 4.8 µM and an IC50 (second compound 0.316 µM) of 6.69 µM. The IC50 (second compound 1 µM) was 5.15 µM, the IC50 (second compound 3.16 µM) was 4.04 µM and the IC50 (second compound 10 µM) was 2.96 µM. The viability, T/C [1] was 110%, the viability, T/C [2] was 96.3% and the viability, T/C [3] was 93.1%. It also gave a viability, T/C [4] of 88.9%, a viability, T/C [5] of 66.2% and a viability, T/C [6] of 30.4%. The viability, T/C [7] was 105%, the viability, T/C [8] was 120% and the viability, T/C [9] was 91.1%. It also gave a viability, T/C [10] of 85.6%, a viability, T/C [11] of 59.2% and a viability, T/C [12] of 33.8%. The viability, T/C [13] was 100%, the viability, T/C [14] was 105% and the viability, T/C [15] was 96.5%. The viability, T/C [16] was 98.2%, the viability, T/C [17] was 87.9% and the viability, T/C [18] was 29.5%. The viability, T/C [19] was 107%, the viability, T/C [20] was 101% and the viability, T/C [21] was 99.5%. It also gave a viability, T/C [22] of 93.7%, a viability, T/C [23] of 64.7% and a viability, T/C [24] of 29.6%. It also gave a viability, T/C [25] of 97.1%, a viability, T/C [26] of 102% and a viability, T/C [27] of 87.1%. For the same molecule, the viability, T/C [28] was 94%, the viability, T/C [29] was 55.5% and the viability, T/C [30] was 29.5%. For the same molecule, the viability, T/C [31] was 99.9%, the viability, T/C [32] was 95.6% and the viability, T/C [33] was 95.4%. It also gave a viability, T/C [34] of 82.5%, a viability, T/C [35] of 48% and a viability, T/C [36] of 28.6%.
